Measured values published in patent US20230276831A1, “Food/Beverage Article” (Kikkoman Corporation, priority 2020, published 2023).

Assays:
[1] = system: Lactobacillus rennini (DSM 20253); experiment: Antimicrobial action of licoricidin in soy sauce at various pH (Test Example 5); assay type: cell-based; set-up: key: A: The bacterial count decreases to less than 10% of the bacterial count of the control group.; B: The bacterial count decreases to 10% or more and less than 50% of the bacterial count of the control group.; C: The bacterial count decreases to 50% or more and less than 100% of the bacterial count of control group.; D: The bacterial count is the same as the bacterial count of the control group; details: salt 4% (w/v)
Method: Commercially available whole soybean soy sauce (produced by Kikkoman Corporation) was electrodialyzed and then concentrated under reduced pressure to obtain soy sauce at a salt concentration of 0% (w/v) and an alcohol concentration of 0% (v/v). Then, salt and/or alcohol was added to the above-mentioned obtained soy sauce, and hydrochloric acid or an aqueous sodium hydroxide solution was then added to adjust the pH to a desired pH. Germfree purified water was added, and the mixture was then heat-treated to produce soy sauce at the salt concentration, the alcohol concentration, and the pH shown in the following Table 17.
Licoricidin (produced by ChemFaces) was added to each of the obtained soy sauces to concentrations of 1 ppm, 5 ppm, 10 ppm, 25 ppm, and 50 ppm. Lactic acid bacteria (Lactobacillus rennini (DSM 20253)) were then added to 10^6 to 10^7 cells/mL and cultured at 30° C. for 7 days. After the culture, the number of lactic acid bacteria was measured using the GAM agar medium “Nissui”. Soy sauce to which licoricidin was not added was used as a control group, and the antimicrobial activity was evaluated in comparison with the number of lactic acid bacteria in the control group. The evaluation was performed using the same criterion as in Test Example 4.

[2] = system: Bacillus coagulans (IFO12714); experiment: Antimicrobial action of licoricidin on flat sour bacteria in Japanese seasoned soup stock (Test Example 8); assay type: cell-based; set-up: key to Evaluation (antimicrobial activity by comparing the pHs): A: There is no change in pH as compared with the control.; B: The pH decreases as compared with the control; details: for pH: Japanese seasoned soup stock (salt 3% (w/v), alcohol 0.4% (v/v), pH 5.2), cultured at 45° C. for 7 days; for Evaluation (antimicrobial activity by comparing the pHs): Japanese seasoned soup stock
Method: Specifically, components contained in dried bonito was extracted with water; Koikuchi soy sauce (produced by Kikkoman Corporation), sugar, and salt were blended with the obtained extract; and the resulting mixture was heated to produce Japanese seasoned soup stock. The salt concentration of the obtained Japanese seasoned soup stock was 3% (w/v), the alcohol concentration was 0.4% (v/v), and the pH was 5.2.
Licoricidin (produced by ChemFaces) was added to the produced Japanese seasoned soup stock to concentrations of 1 ppm, 5 ppm, 10 ppm, 25 ppm, and 50 ppm. Flat sour bacteria (Bacillus coagulans (IFO12714)) were then added to 10^4 to 10^5 cells/mL and cultured at 45° C. for 7 days. Japanese seasoned soup stock to which licoricidin was not added was used as a control, and the antimicrobial activity was evaluated by comparing the pHs. The evaluation was performed using the following criterion.
• A: There is no change in pH as compared with the control. • B: The pH decreases as compared with the control.

COc1c(CC=C(C)C)c(O)cc2c1C[C@H](c1ccc(O)c(CC=C(C)C)c1O)CO2 [Licoricidin, 4-[(R)-7-hydroxy-5-methoxy-6-(3-methyl-2-butenyl)chroman-3-yl]-2-(3-methyl-2-butenyl)-1,3-benzenediol]
Antimicrobial activity ([1]; pH 4.2, alcohol 5% (v/v), licoricidin 1 ppm): C (The bacterial count decreases to 50% or more and less than 100% of the bacterial count of control group.)
Antimicrobial activity ([1]; pH 4.2, alcohol 5% (v/v), licoricidin 5 ppm): A (The bacterial count decreases to less than 10% of the bacterial count of the control group.)
Antimicrobial activity ([1]; pH 4.2, alcohol 5% (v/v), licoricidin 10 ppm): A (The bacterial count decreases to less than 10% of the bacterial count of the control group.)
Antimicrobial activity ([1]; pH 4.2, alcohol 5% (v/v), licoricidin 25 ppm): A (The bacterial count decreases to less than 10% of the bacterial count of the control group.)
Antimicrobial activity ([1]; pH 4.2, alcohol 5% (v/v), licoricidin 50 ppm): A (The bacterial count decreases to less than 10% of the bacterial count of the control group.)
Antimicrobial activity ([1]; pH 4.6, alcohol 0% (v/v), licoricidin 1 ppm): D
Antimicrobial activity ([1]; pH 4.6, alcohol 0% (v/v), licoricidin 5 ppm): D
Antimicrobial activity ([1]; pH 4.6, alcohol 0% (v/v), licoricidin 10 ppm): A (The bacterial count decreases to less than 10% of the bacterial count of the control group.)
Antimicrobial activity ([1]; pH 4.6, alcohol 0% (v/v), licoricidin 25 ppm): A (The bacterial count decreases to less than 10% of the bacterial count of the control group.)
Antimicrobial activity ([1]; pH 4.6, alcohol 0% (v/v), licoricidin 50 ppm): A (The bacterial count decreases to less than 10% of the bacterial count of the control group.)
Antimicrobial activity ([1]; pH 4.6, alcohol 5% (v/v), licoricidin 1 ppm): B (The bacterial count decreases to 10% or more and less than 50% of the bacterial count of the control group.)
Antimicrobial activity ([1]; pH 4.6, alcohol 5% (v/v), licoricidin 5 ppm): A (The bacterial count decreases to less than 10% of the bacterial count of the control group.)
Antimicrobial activity ([1]; pH 4.6, alcohol 5% (v/v), licoricidin 10 ppm): A (The bacterial count decreases to less than 10% of the bacterial count of the control group.)
Antimicrobial activity ([1]; pH 4.6, alcohol 5% (v/v), licoricidin 25 ppm): A (The bacterial count decreases to less than 10% of the bacterial count of the control group.)
Antimicrobial activity ([1]; pH 4.6, alcohol 5% (v/v), licoricidin 50 ppm): A (The bacterial count decreases to less than 10% of the bacterial count of the control group.)
Antimicrobial activity ([1]; pH 5.0, alcohol 0% (v/v), licoricidin 1 ppm): B (The bacterial count decreases to 10% or more and less than 50% of the bacterial count of the control group.)
Antimicrobial activity ([1]; pH 5.0, alcohol 0% (v/v), licoricidin 5 ppm): A (The bacterial count decreases to less than 10% of the bacterial count of the control group.)
Antimicrobial activity ([1]; pH 5.0, alcohol 0% (v/v), licoricidin 10 ppm): A (The bacterial count decreases to less than 10% of the bacterial count of the control group.)
Antimicrobial activity ([1]; pH 5.0, alcohol 0% (v/v), licoricidin 25 ppm): A (The bacterial count decreases to less than 10% of the bacterial count of the control group.)
Antimicrobial activity ([1]; pH 5.0, alcohol 0% (v/v), licoricidin 50 ppm): A (The bacterial count decreases to less than 10% of the bacterial count of the control group.)
Antimicrobial activity ([1]; pH 5.0, alcohol 5% (v/v), licoricidin 1 ppm): C (The bacterial count decreases to 50% or more and less than 100% of the bacterial count of control group.)
Antimicrobial activity ([1]; pH 5.0, alcohol 5% (v/v), licoricidin 5 ppm): A (The bacterial count decreases to less than 10% of the bacterial count of the control group.)
Antimicrobial activity ([1]; pH 5.0, alcohol 5% (v/v), licoricidin 10 ppm): A (The bacterial count decreases to less than 10% of the bacterial count of the control group.)
Antimicrobial activity ([1]; pH 5.0, alcohol 5% (v/v), licoricidin 25 ppm): A (The bacterial count decreases to less than 10% of the bacterial count of the control group.)
Antimicrobial activity ([1]; pH 5.0, alcohol 5% (v/v), licoricidin 50 ppm): A (The bacterial count decreases to less than 10% of the bacterial count of the control group.)
Antimicrobial activity ([1]; pH 5.4, alcohol 0% (v/v), licoricidin 1 ppm): B (The bacterial count decreases to 10% or more and less than 50% of the bacterial count of the control group.)
Antimicrobial activity ([1]; pH 5.4, alcohol 0% (v/v), licoricidin 5 ppm): A (The bacterial count decreases to less than 10% of the bacterial count of the control group.)
Antimicrobial activity ([1]; pH 5.4, alcohol 0% (v/v), licoricidin 10 ppm): A (The bacterial count decreases to less than 10% of the bacterial count of the control group.)
Antimicrobial activity ([1]; pH 5.4, alcohol 0% (v/v), licoricidin 25 ppm): A (The bacterial count decreases to less than 10% of the bacterial count of the control group.)
Antimicrobial activity ([1]; pH 5.4, alcohol 0% (v/v), licoricidin 50 ppm): A (The bacterial count decreases to less than 10% of the bacterial count of the control group.)
Antimicrobial activity ([1]; pH 5.4, alcohol 5% (v/v), licoricidin 1 ppm): C (The bacterial count decreases to 50% or more and less than 100% of the bacterial count of control group.)
Antimicrobial activity ([1]; pH 5.4, alcohol 5% (v/v), licoricidin 5 ppm): A (The bacterial count decreases to less than 10% of the bacterial count of the control group.)
Antimicrobial activity ([1]; pH 5.4, alcohol 5% (v/v), licoricidin 10 ppm): A (The bacterial count decreases to less than 10% of the bacterial count of the control group.)
Antimicrobial activity ([1]; pH 5.4, alcohol 5% (v/v), licoricidin 25 ppm): A (The bacterial count decreases to less than 10% of the bacterial count of the control group.)
Antimicrobial activity ([1]; pH 5.4, alcohol 5% (v/v), licoricidin 50 ppm): A (The bacterial count decreases to less than 10% of the bacterial count of the control group.)
Antimicrobial activity ([1]; pH 5.8, alcohol 0% (v/v), licoricidin 1 ppm): D
Antimicrobial activity ([1]; pH 5.8, alcohol 0% (v/v), licoricidin 5 ppm): A (The bacterial count decreases to less than 10% of the bacterial count of the control group.)
Antimicrobial activity ([1]; pH 5.8, alcohol 0% (v/v), licoricidin 10 ppm): A (The bacterial count decreases to less than 10% of the bacterial count of the control group.)
Antimicrobial activity ([1]; pH 5.8, alcohol 0% (v/v), licoricidin 25 ppm): A (The bacterial count decreases to less than 10% of the bacterial count of the control group.)
Antimicrobial activity ([1]; pH 5.8, alcohol 0% (v/v), licoricidin 50 ppm): A (The bacterial count decreases to less than 10% of the bacterial count of the control group.)
Antimicrobial activity ([1]; pH 5.8, alcohol 5% (v/v), licoricidin 1 ppm): D
Antimicrobial activity ([1]; pH 5.8, alcohol 5% (v/v), licoricidin 5 ppm): D
Antimicrobial activity ([1]; pH 5.8, alcohol 5% (v/v), licoricidin 10 ppm): A (The bacterial count decreases to less than 10% of the bacterial count of the control group.)
Antimicrobial activity ([1]; pH 5.8, alcohol 5% (v/v), licoricidin 25 ppm): A (The bacterial count decreases to less than 10% of the bacterial count of the control group.)
Antimicrobial activity ([1]; pH 5.8, alcohol 5% (v/v), licoricidin 50 ppm): A (The bacterial count decreases to less than 10% of the bacterial count of the control group.)
pH ([2]; licoricidin 1 ppm): 4.1
pH ([2]; licoricidin 5 ppm): 4.1
pH ([2]; licoricidin 10 ppm): 5.3
pH ([2]; licoricidin 25 ppm): 5.3
pH ([2]; licoricidin 50 ppm): 5.2
Evaluation (antimicrobial activity by comparing the pHs) ([2]; licoricidin 1 ppm): B
Evaluation (antimicrobial activity by comparing the pHs) ([2]; licoricidin 5 ppm): B
Evaluation (antimicrobial activity by comparing the pHs) ([2]; licoricidin 10 ppm): A
Evaluation (antimicrobial activity by comparing the pHs) ([2]; licoricidin 25 ppm): A
Evaluation (antimicrobial activity by comparing the pHs) ([2]; licoricidin 50 ppm): A
Antimicrobial activity to flat sour bacteria ([2]; conclusion of Test Example 8): exhibited antimicrobial activity
